Reference: ChEMBL document CHEMBL3045921, “Synthesis and Acaricidal Activity of Pyrazole-5-carboxamide Derivatives” (1991)
In brackets after ≈: the same amount, converted by molar mass.

Columns and labels:
Type in all cases: functional
Tetranychus urticae [1] = assay: Acaricidal activity against Tetranychus urticae (two-spotted spider mite) in kidney bean leaf assessed as mortality at 500 ppm at 25 degC measured after 5 days; details: 120 h
Panonychus citri [2] = assay: Ovicidal activity against Panonychus citri in mandarin orange leaf assessed as egg mortality at 25 degC measured after 7 days; details: 168 h
Panonychus citri [3] = assay: Adulticidal activity against Panonychus citri in mandarin orange leaf assessed as mortality at 25 degC measured after 2 days; details: 48 h
Tetranychus urticae [4] = assay: Ovicidal activity against Tetranychus urticae (two-spotted spider mite) in kidney bean leaf assessed as egg mortality at 25 degC measured after 7 days; details: 168 h
Tetranychus urticae [5] = assay: Adulticidal activity against Tetranychus urticae (two-spotted spider mite) in kidney bean leaf assessed as mortality at 25 degC measured after 2 days; details: 48 h
Tetranychus urticae [6] = assay: Acaricidal activity against Tetranychus urticae (two-spotted spider mite) in kidney bean leaf assessed as mortality at 3.1 ppm at 25 degC measured after 5 days; details: 120 h
Tetranychus urticae [7] = assay: Acaricidal activity against Tetranychus urticae (two-spotted spider mite) in kidney bean leaf assessed as mortality at 12.5 ppm at 25 degC measured after 5 days; details: 120 h
Tetranychus urticae [8] = assay: Acaricidal activity against Tetranychus urticae (two-spotted spider mite) in kidney bean leaf assessed as mortality at 50 ppm at 25 degC measured after 5 days; details: 120 h
Tetranychus urticae [9] = assay: Acaricidal activity against Tetranychus urticae (two-spotted spider mite) in kidney bean leaf assessed as mortality at 200 ppm at 25 degC measured after 5 days; details: 120 h

SMILES | mortality at 500 ppm (Tetranychus urticae [1]) [%] | LC50 (Panonychus citri [2]) [µg/mL] | LC50 (Panonychus citri [3]) [µg/mL] | LC50 (Tetranychus urticae [4]) [µg/mL] | LC50 (Tetranychus urticae [5]) [µg/mL] | mortality at 3.1 ppm (Tetranychus urticae [6]) [%] | mortality at 12.5 ppm (Tetranychus urticae [7]) [%] | mortality at 50 ppm (Tetranychus urticae [8]) [%] | mortality at 200 ppm (Tetranychus urticae [9]) [%]
Cc1nn(C)c(C(=O)NCc2ccc(C(C)(C)C)cc2)c1Br | 100 | 17 (≈ 46.7 µM) | 4 (≈ 11 µM) | 3 (≈ 8.24 µM) | 9.8 (≈ 26.9 µM) | 0 | 30 | 100 | 100
Cc1nn(C)c(C(=O)NCc2ccc(C(C)(C)C)cc2)c1C | 100 | 36 (≈ 120 µM) | 6.1 (≈ 20.4 µM) | 8.8 (≈ 29.4 µM) | 7.5 (≈ 25 µM) | 0 | 100 | 100 | 100
CCc1nn(C)c(C(=O)NCc2ccc(C(C)(C)C)cc2)c1Br |  | 10 (≈ 26.4 µM) | 0.59 (≈ 1.56 µM) | 1.4 (≈ 3.7 µM) | 7.1 (≈ 18.8 µM) |  |  |  | 
CCCCCCCCc1ccc(CNC(=O)c2c(Cl)c(CC)nn2C)cc1 | 100 |  |  |  |  | 0 | 0 | 30 | 80
Cc1nn(C)c(C(=O)NCc2ccc(C(C)(C)C)cc2)c1C#N | 0 |  |  |  |  | 0 | 0 | 0 | 0
CCCc1nn(C)c(C(=O)NCc2ccc(C(C)(C)C)cc2)c1Cl | 100 |  |  |  |  | 0 | 0 | 30 | 80
CCc1nn(C)c(C(=O)NCc2ccc(CC(C)(C)C)cc2)c1Cl | 100 |  |  |  |  | 0 | 80 | 100 | 100
CCOc1c(C)nn(C)c1C(=O)NCc1ccc(C(C)(C)C)cc1 | 100 |  |  |  |  | 0 | 0 | 0 | 100
CCc1nn(C)c(C(=O)NCc2ccc(C(C)C)cc2)c1Cl | 100 |  |  |  |  | 0 | 30 | 100 | 100
CCc1nn(C)c(C(=O)NCc2ccc(C(C)(C)C)cc2)c1Cl [TEBUFENPYRAD] | 100 | 3.9 (≈ 11.7 µM) | 0.5 (≈ 1.5 µM) | 0.96 (≈ 2.88 µM) | 3.7 (≈ 11.1 µM) | 100 | 100 | 100 | 100
CCCc1ccc(CNC(=O)c2c(Cl)c(CC)nn2C)cc1 | 100 |  |  |  |  | 0 | 0 | 0 | 30
CCc1nn(C)c(C(=O)NCc2ccc(C3CC3)cc2)c1Cl | 30 |  |  |  |  | 0 | 0 | 0 | 0
CCCCCCc1ccc(CNC(=O)c2c(Cl)c(CC)nn2C)cc1 | 100 |  |  |  |  | 0 | 0 | 30 | 80
Cc1nn(C)c(C(=O)NCc2ccc(C(C)(C)C)cc2)c1Cl | 100 | 9.9 (≈ 31 µM) | 3.1 (≈ 9.69 µM) | 2.4 (≈ 7.5 µM) | 7.7 (≈ 24.1 µM) | 30 | 100 | 100 | 100
CCCCc1ccc(CNC(=O)c2c(Cl)c(CC)nn2C)cc1 | 100 |  |  |  |  | 0 | 80 | 100 | 100
Cc1nn(C)c(C(=O)NCc2ccc(C(C)(C)C)cc2)c1[N+](=O)[O-] | 0 |  |  |  |  | 0 | 0 | 0 | 0
COc1c(C)nn(C)c1C(=O)NCc1ccc(C(C)(C)C)cc1 | 100 |  |  |  |  | 0 | 100 | 100 | 100
